# Test results reported in PubChem BioAssay (NCI).
#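 A five-concentration, 48-hour dose response in 96-well plates underlies each endpoint, interpolated linearly between surrounding concentrations. GI50 is the concentration that inhibits growth by half. TGI: total growth inhibition.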
# How the values were obtained:
# Experiment in all cases: NCI tumour cell line growth inhibition, 48 h
# EKVX NSCLC = test system: EKVX NSCLC
# SN12C renal = test system: SN12C renal
# U251 CNS = test system: U251 CNS
# HT29 colon = test system: HT29 colon
# COLO 205 colon = test system: COLO 205 colon
# IGROV1 ovarian = test system: IGROV1 ovarian
# SW-620 colon = test system: SW-620 colon
# PC-3 prostate = test system: PC-3 prostate
# K-562 leukemia = test system: K-562 leukemia
# MALME-3M melanoma = test system: MALME-3M melanoma
Compound,GI50 (EKVX NSCLC) [µM],TGI (EKVX NSCLC) [µM],GI50 (SN12C renal) [µM],TGI (SN12C renal) [µM],GI50 (U251 CNS) [µM],TGI (U251 CNS) [µM],GI50 (HT29 colon) [µM],TGI (HT29 colon) [µM],GI50 (COLO 205 colon) [µM],TGI (COLO 205 colon) [µM],GI50 (IGROV1 ovarian) [µM],TGI (IGROV1 ovarian) [µM],GI50 (SW-620 colon) [µM],TGI (SW-620 colon) [µM],GI50 (PC-3 prostate) [µM],TGI (PC-3 prostate) [µM],GI50 (K-562 leukemia) [µM],TGI (K-562 leukemia) [µM],GI50 (MALME-3M melanoma) [µM],TGI (MALME-3M melanoma) [µM]
CCN(CC)c1ccc(-c2cc(-c3cc(OC)c(OC)c(OC)c3)nc(N3CCOCC3)c2C#N)cc1,2.64,> 100,0.805,> 100,2.48,> 100,0.532,8.87,0.439,7.48,2.83,> 100,3.3,> 100,1.27,> 100,1,> 19.9,2.28,> 29.9
CC(=O)OC1=CC(n2cc(F)c(=O)[nH]c2=O)OC(C)C1=O (stereo unspecified),,> 100,,> 100,,> 100,,> 100,,> 100,,> 100,,> 100,,> 100,,> 100,,> 100
Nc1ncnc2c1nnn2C1OC(CO)C(O)C1O (stereo unspecified),,27.5,,6.77,,37.8,,21.9,,2.73,,3.95,,8.35,0.247,5.38,,13.9,,4.62
COc1ccc(-c2nnc(COc3ccc(C(=O)/C=C/c4ccco4)cc3)o2)cc1,,,3.17,11.5,1.62,3.08,1.91,3.61,2.23,4.32,2.08,4.38,1.91,4.11,3.33,11.8,2.77,7.45,2.82,7.43
O=[N+]([O-])C(/C=C(\Cl)n1nnc2ccccc21)=C(/Cl)n1nnc2ccccc21,,> 100,,> 100,,> 100,,> 100,,> 100,,> 100,,,,> 100,,> 100,,> 100
Cn1cnc([N+](=O)[O-])c1S(=O)(=O)Oc1cccc2ccccc12,13.9,34.8,5.71,20.5,8.89,34.7,1.8,3.99,1.06,2.64,2.14,5.09,1.36,2.89,8.43,44.4,1.6,8.63,1.83,4.98
N#CC(C#N)=CNC(N)=S,,> 100,,> 100,,> 100,,> 100,,> 100,,> 100,,> 100,,> 100,,> 100,,> 100
COc1cc(C2c3cc4c(cc3OC(C)(O)C2C)OCO4)cc(OC)c1OC (stereo unspecified),,> 100,,> 100,,> 100,,> 100,,> 100,,76.2,,> 100,,> 100,,11.9,,> 100
O=S(=O)(CCn1c(Sc2ccccc2)c(Sc2ccccc2)c2ccccc21)c1ccccc1,,> 100,,> 100,,> 100,,> 100,,> 100,,> 100,,> 100,,> 100,,> 100,,> 100
COc1cc2c3c(n(C)c(=O)c2cc1OC)-c1cc2c(cc1/C3=C\CCCN)OCO2,17.7,> 100,,,1.66,10.6,4.57,> 100,7.67,> 100,2.24,32.4,2.33,32.9,3.31,31.9,1.31,12,10.1,38.6
COc1ccc(-c2nnc(COc3ccc(NC(=O)Nc4cc(C(F)(F)F)cc(C(F)(F)F)c4)cc3F)o2)cc1,,,1.93,5.39,1.54,3.45,2.21,4.74,1.9,3.3,2.95,10.9,2.19,5.72,1,4.34,2.66,13.5,1.85,4.77
C=C1C(=O)O[C@H]2[C@H]1CC/C(COC(=O)c1c[nH]c3ccccc13)=C\CC[C@@]1(C)O[C@@H]21,0.315,2.01,0.237,0.623,0.616,1.93,0.249,0.58,0.244,0.663,,,0.234,0.752,0.384,2.03,0.279,1.62,0.324,1.27
CC1(C)C2CCC(=O)C1CC2 (stereo unspecified),,,,> 100,,> 100,,> 100,,> 100,,> 100,,> 100,,> 100,,> 100,,> 100
